Measurements taken from US20120270237A9, “METHODS FOR THE IDENTIFICATION OF KINASE INTERACTING MOLECULES AND FOR THE PURIFICATION OF KINASE PROTEINS” (Cellzone AG, priority 2009, published 2012).

Columns and labels:
AMPKa1 = AMPKa1 (Homo sapiens, UniProt Q13131); assay: Kinobeads competition binding, HeLa Placenta lysate mix; design: endogenous in cells; settings: 10 μM free compound
Protocol: (§1) To one aliquot of cell lysate 10 μM of the free compound (FIG. 3, CZC31326) was added and allowed to bind to proteins in the lysate. Then the affinity matrix with the immobilized compound was added to capture proteins that were not interacting with the previously added free compound. Beads were separated from the lysate and bead bound proteins were eluted in SDS sample buffer and subsequently separated by SDS-Polyacrylamide gel electrophoresis (FIG. 10). Suitable gel bands were cut out and subjected to in-gel proteolytic digestion with trypsin. The second lysate aliquot was processed identically, however no free compound was added (DMSO solvent control). Peptides originating from samples 1 and 2 were labeled with iTRAQ reagents (iTRAQ 114 and iTRAQ 117) and the combined samples were analyzed with a nano-flow liquid chromatography system coupled online to a tandem mass spectrometer (LC-MS/MS) experiment followed by iTRAQ reporter ion quantification in the MS/MS spectra as described in Example 2.

TBK1 = target: T1, TBK1 (Homo sapiens, UniProt Q9UHD2); assay: as above; design: endogenous in cells; settings: 10 μM free compound
T1 sequence (Q9UHD2 1-729): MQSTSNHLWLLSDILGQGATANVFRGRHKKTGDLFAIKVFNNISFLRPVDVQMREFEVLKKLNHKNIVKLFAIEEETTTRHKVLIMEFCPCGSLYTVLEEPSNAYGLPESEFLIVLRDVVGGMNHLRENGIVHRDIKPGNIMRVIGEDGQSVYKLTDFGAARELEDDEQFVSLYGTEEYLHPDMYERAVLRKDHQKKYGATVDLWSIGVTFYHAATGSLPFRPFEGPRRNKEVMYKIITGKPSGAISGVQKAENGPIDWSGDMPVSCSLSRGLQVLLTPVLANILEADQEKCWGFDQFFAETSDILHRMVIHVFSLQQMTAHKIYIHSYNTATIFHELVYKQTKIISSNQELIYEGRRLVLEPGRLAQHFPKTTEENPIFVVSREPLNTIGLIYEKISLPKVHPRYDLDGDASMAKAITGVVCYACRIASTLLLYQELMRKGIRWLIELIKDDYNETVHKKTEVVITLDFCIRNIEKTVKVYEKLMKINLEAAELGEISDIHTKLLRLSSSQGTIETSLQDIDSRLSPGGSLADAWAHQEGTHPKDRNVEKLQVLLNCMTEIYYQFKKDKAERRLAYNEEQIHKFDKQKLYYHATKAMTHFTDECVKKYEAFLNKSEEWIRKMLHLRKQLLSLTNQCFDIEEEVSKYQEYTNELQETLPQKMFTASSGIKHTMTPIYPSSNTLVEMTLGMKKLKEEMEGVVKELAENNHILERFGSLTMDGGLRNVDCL
Protocol: as §1

IKKe = target: T2, IKKe (Homo sapiens, UniProt Q14164); assay: Kinobeads competition binding, L-363 cell lysate; design: endogenous in cells; host or cells: L-363 (treated with MG132 before harvest); settings: 10 μM free compound, L-363 lysate
T2 sequence (Q14164 1-716): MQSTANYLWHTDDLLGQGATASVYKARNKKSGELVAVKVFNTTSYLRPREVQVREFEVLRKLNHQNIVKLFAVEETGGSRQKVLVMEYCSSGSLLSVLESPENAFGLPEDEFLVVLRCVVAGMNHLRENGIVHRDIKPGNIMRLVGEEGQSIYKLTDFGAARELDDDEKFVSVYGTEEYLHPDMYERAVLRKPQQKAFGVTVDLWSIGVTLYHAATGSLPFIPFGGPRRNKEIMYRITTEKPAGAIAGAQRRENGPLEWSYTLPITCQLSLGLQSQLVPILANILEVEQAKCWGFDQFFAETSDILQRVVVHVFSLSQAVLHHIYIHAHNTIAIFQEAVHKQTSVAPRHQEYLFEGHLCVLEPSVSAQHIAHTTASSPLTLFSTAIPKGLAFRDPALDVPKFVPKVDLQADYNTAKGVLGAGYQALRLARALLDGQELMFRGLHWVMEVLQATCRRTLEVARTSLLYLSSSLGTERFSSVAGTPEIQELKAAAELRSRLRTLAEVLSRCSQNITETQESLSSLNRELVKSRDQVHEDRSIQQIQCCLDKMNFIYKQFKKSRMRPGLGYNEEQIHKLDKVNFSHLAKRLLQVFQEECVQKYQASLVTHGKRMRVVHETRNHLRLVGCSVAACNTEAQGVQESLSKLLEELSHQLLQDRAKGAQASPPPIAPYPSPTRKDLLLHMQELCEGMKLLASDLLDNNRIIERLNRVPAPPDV
Protocol: as §1, with “8).” for “10).”
For this experiment the human plasma cell leukaemia line L-363 was used (German Collection of Microorganisms and Cell Cultures, DSMZ number ACC49, Braunschweig, Germany). Cells were treated for three hours with 20 μM of the proteasome inhibitor MG132 (Z-Leu-Leu-Leu-al, Sigma C2211) prior to cell harvesting.

Sequence of AMPKa1 (Q13131 whole entry): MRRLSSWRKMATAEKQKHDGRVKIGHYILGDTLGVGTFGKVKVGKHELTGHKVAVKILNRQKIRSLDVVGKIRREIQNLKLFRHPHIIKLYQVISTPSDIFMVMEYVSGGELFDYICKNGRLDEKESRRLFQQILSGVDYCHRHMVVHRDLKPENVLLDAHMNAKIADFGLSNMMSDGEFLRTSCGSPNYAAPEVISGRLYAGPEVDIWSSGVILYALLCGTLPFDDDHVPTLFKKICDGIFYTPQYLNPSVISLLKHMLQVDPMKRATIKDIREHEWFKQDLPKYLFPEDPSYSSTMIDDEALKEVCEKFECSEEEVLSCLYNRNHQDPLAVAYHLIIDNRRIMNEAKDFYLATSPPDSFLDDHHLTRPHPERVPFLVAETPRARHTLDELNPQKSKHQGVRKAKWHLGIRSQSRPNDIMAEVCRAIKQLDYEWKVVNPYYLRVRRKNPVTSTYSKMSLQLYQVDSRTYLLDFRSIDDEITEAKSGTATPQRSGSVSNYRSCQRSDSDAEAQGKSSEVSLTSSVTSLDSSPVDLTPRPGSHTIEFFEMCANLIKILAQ
Sequence of AMPKa1 (Q9Y478 2-270 partner limits assumed): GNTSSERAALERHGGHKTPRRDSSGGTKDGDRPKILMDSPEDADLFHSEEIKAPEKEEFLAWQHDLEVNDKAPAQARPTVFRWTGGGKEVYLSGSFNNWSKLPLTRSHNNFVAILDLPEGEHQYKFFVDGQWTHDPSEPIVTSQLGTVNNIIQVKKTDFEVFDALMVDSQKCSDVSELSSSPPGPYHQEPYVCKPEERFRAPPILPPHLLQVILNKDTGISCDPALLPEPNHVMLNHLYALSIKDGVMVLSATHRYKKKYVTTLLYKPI
Sequence of AMPKa1 (P54619 whole entry partner): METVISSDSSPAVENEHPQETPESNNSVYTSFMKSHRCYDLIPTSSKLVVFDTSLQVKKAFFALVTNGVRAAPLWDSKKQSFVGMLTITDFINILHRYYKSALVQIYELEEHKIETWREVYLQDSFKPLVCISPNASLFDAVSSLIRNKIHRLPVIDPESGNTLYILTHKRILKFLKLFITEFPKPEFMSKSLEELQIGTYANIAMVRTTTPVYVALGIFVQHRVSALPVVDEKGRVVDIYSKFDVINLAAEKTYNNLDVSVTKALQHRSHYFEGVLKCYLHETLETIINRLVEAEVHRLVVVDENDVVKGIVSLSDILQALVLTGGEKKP

SMILES: CS(=O)(=O)Nc1ccccc1Nc1nc(Nc2cccc(OCCN)c2)ncc1Cl [CZC31326, N-(2-(2-(3-(2-aminoethoxy)phenylamino)-5-chloropyrimidin-4-ylamino)phenyl)methanesulfonamide]
- inhibition at 10 µM (AMPKa1): 94.9%
- inhibition at 10 µM (TBK1): 93.8%
- inhibition at 10 µM (IKKe): 89.4%
